Earlier results in article PMC7114426 (Virus Research, 2012).

System: nsp16

| Compound | inhibition of the MTase activity of nsp16 |
| --- | --- |
| O=C(O)C1=CC(=C(c2ccc(O)c(C(=O)O)c2)c2ccc(O)c(C(=O)O)c2)C=CC1=O [ATA, aurintricarboxylic acid] | inhibit the MTase activity of nsp16 |
| Nc1ncnc2c1ncn2[C@@H]1O[C@H](CSCC[C@H](N)C(=O)O)[C@@H](O)[C@H]1O [SAH, S-adenosyl-l-homocysteine] | inhibit the MTase activity of nsp16 |
| Nc1ncnc2c1ncn2[C@@H]1O[C@H](C[C@@H](N)CC[C@H](N)C(=O)O)[C@@H](O)[C@H]1O [sinefungin] | inhibit the MTase activity of nsp16 |
